Assay: xn = mol fraction of the nth substance listed
Details: Liquid, Vibrating tube method

Cc1ccc(C)cc1 [1,4-dimethylbenzene] + CCCCCCCCCC
mass density [kg/m3]
Details | 100 kPa | 5000 kPa | 10000 kPa | 20000 kPa | 30000 kPa | 40000 kPa
298.15 K, x2 = 0.0513 | – | – | – | 860 | 866.2 | 872.1
298.15 K, x2 = 0.0971 | – | – | – | 851.2 | 857.6 | 863.4
298.15 K, x2 = 0.1962 | – | – | – | 833.8 | 840.2 | 846
298.15 K, x2 = 0.2932 | – | – | – | 818.4 | 824.7 | 830.4
298.15 K, x2 = 0.3942 | – | – | – | 806 | 812.4 | 818.2
298.15 K, x2 = 0.4987 | – | – | – | 790.4 | 796.8 | 802.6
298.15 K, x2 = 0.5563 | – | – | – | 783.6 | 789.9 | 795.7
298.15 K, x2 = 0.5965 | – | – | – | 778.8 | 785.2 | 791.1
298.15 K, x2 = 0.7018 | – | – | – | 767.7 | 774 | 779.8
298.15 K, x2 = 0.8047 | – | – | – | 757.4 | 763.7 | 769.5
298.15 K, x2 = 0.8975 | – | – | – | 748.2 | 755.2 | 761.6
298.15 K, x2 = 0.9474 | – | – | – | 744.7 | 750.9 | 757.2
308.15 K, x2 = 0.0513 | 837.2 | 841.3 | 844.9 | 851.9 | 858.8 | 865.1
308.15 K, x2 = 0.0971 | 828.6 | 832.6 | 836.5 | 843.4 | 849.8 | 856
308.15 K, x2 = 0.1962 | 811.1 | 815.2 | 819.1 | 826 | 832.7 | 838.9
308.15 K, x2 = 0.2932 | 795.7 | 799.9 | 803.7 | 810.6 | 817.4 | 823.6
308.15 K, x2 = 0.3942 | 783.5 | 787.7 | 791.4 | 798.6 | 805.2 | 811.3
308.15 K, x2 = 0.4987 | 768.1 | 772.1 | 776.1 | 783.3 | 789.9 | 795.9
308.15 K, x2 = 0.5563 | 761 | 765.2 | 769.3 | 776.4 | 783 | 789.1
308.15 K, x2 = 0.5965 | 757 | 760.6 | 764.5 | 771.7 | 778.2 | 785
308.15 K, x2 = 0.7018 | 746.3 | 749.6 | 753.5 | 760.6 | 767 | 773.3
308.15 K, x2 = 0.8047 | 736.1 | 739.4 | 743.3 | 750.3 | 757 | 763.1
308.15 K, x2 = 0.8975 | 727.9 | 731.3 | 734.8 | 741.9 | 748.5 | 755.1
308.15 K, x2 = 0.9474 | 723.2 | 726.8 | 730.9 | 737.9 | 744.4 | 750.9
